What was measured:
[1] = molecular target: T1, Bombesin receptor subtype-3 (Homo sapiens, UniProt P32247); experiment: biochemical; type: cell-based, CHO
T1 sequence (P32247 whole entry): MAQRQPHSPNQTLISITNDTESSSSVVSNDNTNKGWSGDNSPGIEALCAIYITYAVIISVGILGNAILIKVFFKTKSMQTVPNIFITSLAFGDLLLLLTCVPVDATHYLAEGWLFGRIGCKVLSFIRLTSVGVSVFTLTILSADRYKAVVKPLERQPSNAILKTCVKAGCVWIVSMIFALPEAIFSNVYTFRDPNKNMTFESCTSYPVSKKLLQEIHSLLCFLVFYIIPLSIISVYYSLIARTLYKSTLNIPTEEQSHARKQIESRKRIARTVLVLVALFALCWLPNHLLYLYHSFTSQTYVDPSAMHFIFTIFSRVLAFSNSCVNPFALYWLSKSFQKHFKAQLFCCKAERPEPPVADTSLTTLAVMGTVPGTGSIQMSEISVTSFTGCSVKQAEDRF
Description: Displacement of [125I]D-Tyr6-betaAla11-Phe13-Nle14-bombesin from human BRS-3 expressed in NFAT-CHO cells after 2 hrs by scintillation counting

[2] = molecular target: T1, Bombesin receptor subtype-3; experiment: Agonist activity at human BRS-3 expressed in HEK293 cells coexpressing AEQ over 10 mins by aequorin bioluminescence assay; type: functional, cell-based
[3] = molecular target: T1, Bombesin receptor subtype-3; experiment: Agonist activity at human BRS-3 expressed in HEK293 cells coexpressing AEQ over 10 mins by aequorin bioluminescence assay relative to D-Tyr6-betaAla11-Phe13-Nle14-bombesin; type: functional, cell-based
[4] = molecular target: T2, Bombesin receptor subtype-3 (Mus musculus, UniProt O54798); experiment: Agonist activity at mouse BRS-3 expressed in HEK293 cells coexpressing AEQ over 10 mins by aequorin bioluminescence assay; type: functional, cell-based
T2 sequence (O54798 whole entry): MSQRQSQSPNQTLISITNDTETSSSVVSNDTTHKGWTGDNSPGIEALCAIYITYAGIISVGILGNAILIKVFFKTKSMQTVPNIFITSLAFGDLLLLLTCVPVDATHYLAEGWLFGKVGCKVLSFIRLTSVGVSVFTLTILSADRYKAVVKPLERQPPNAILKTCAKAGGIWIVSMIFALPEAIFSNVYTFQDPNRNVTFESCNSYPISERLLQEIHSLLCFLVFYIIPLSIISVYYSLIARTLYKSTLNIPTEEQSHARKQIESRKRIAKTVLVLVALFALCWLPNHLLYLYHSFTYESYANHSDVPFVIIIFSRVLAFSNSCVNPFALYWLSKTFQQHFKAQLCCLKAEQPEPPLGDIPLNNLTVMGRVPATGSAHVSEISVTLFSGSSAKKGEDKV

[5] = molecular target: T2, Bombesin receptor subtype-3; experiment: Agonist activity at mouse BRS-3 expressed in HEK293 cells coexpressing AEQ over 10 mins by aequorin bioluminescence assay relative to D-Tyr6-betaAla11-Phe13-Nle14-bombesin; type: functional, cell-based
[6] = Drug level in rat plasma at 1 mg/kg, iv after 1 hr; type: ADME, organism-based; parameters: dose 1 mg/kg, route intravenous
[7] = Drug level in rat brain at 1 mg/kg, iv after 1 hr; type: ADME, organism-based; parameters: dose 1 mg/kg, route intravenous; details: read-out: Drug uptake
[8] = Ratio of drug level in rat brain to plasma at 1 mg/kg, iv after 1 hr; type: ADME, organism-based; parameters: dose 1 mg/kg, route intravenous

SMILES	IC50 [1] [nM]	EC50 [2] [nM]	Emax [3] [%]	EC50 [4] [nM]	Emax [5] [%]	concentration at 1 h [6] [nM]	concentration at 1 h [7] [nM]	Kp at 1 h [8]
CCC(C)(C)Cc1cnc(CCc2ccc(-c3cccnc3C(=O)O)cc2)[nH]1	560	1260	95	14	97	–	–	–
CCC(C)(C)Cc1c[nH]c(CCc2ccc(-c3cnccn3)cc2)n1	51	431	100	11	107	–	–	–
CCC(C)(C)Cc1c[nH]c(CCc2ccc(-n3ncnn3)cc2)n1	205	422	89	25	99	–	–	–
CCC(C)(C)Cc1cnc(CCc2ccc(-c3csnn3)cc2)[nH]1	45	538	104	11	109	–	–	–
c1ccc(-c2ccc(CCc3nc(CC4CCCC4)c[nH]3)cc2)nc1	177	425	98	22	103	39	30	0.77
CCC(C)(C)Cc1cnc(CCc2ccc(-n3cncn3)cc2)[nH]1	340	570	89	12	121	200	80	0.4
CCC(C)(C)Cc1cnc(CCc2ccc(-n3ccnn3)cc2)[nH]1	390	641	93	57	111	–	–	–
CCC(C)(C)Cc1c[nH]c(CCc2ccc(-c3cccc(C(=O)O)n3)cc2)n1	2820	5230	15	305	90	–	–	–
CCC(C)(C)Cc1c[nH]c(CCc2ccc(-c3ccccc3C(=O)O)cc2)n1	11	–	101	–	94	–	–	–

Results, then the molecule that gave them:

IC50 [1] [nM]	EC50 [2] [nM]	Emax [3] [%]	EC50 [4] [nM]	Emax [5] [%]	concentration at 1 h [6] [nM]	concentration at 1 h [7] [nM]	Kp at 1 h [8]	SMILES
28	171	108	28	133	–	–	–	CCC(C)(C)Cc1cnc(CCc2ccc(N3CCCCC3)cc2)[nH]1
140	193	95	26	115	–	–	–	CCC(C)(C)Cc1cnc(CCc2ccc(-c3cccc(C#N)n3)cc2)[nH]1
51	169	100	11	91	–	–	–	CCC(C)(C)Cc1c[nH]c(CCc2ccc(-c3cccc(O)n3)cc2)n1
7.5	131	98	4.3	97	–	–	–	CCC(C)(C)Cc1cnc(CCc2ccc(-c3cccnc3)cc2)[nH]1
7.3	37	97	3.9	119	–	–	–	CCC(C)(C)Cc1c[nH]c(CCc2ccc(-c3cccc(N)n3)cc2)n1
10	44	100	6.9	119	540	230	0.42	CCC(C)(C)Cc1cnc(CCc2ccc(-c3cnsc3)cc2)[nH]1
11	63	102	3.1	103	–	–	–	CCC(C)(C)Cc1c[nH]c(CCc2ccc(-c3ccns3)cc2)n1
36	63	103	4.7	96	–	–	–	O=C(O)c1cc(F)c(F)cc1-c1ccc(CCc2nc(CC3CCCCC3)c[nH]2)cc1
101	305	95	15	103	–	–	–	CCC(C)(C)Cc1cnc(CCc2ccc(-c3ccncc3)cc2)[nH]1
–	105	102	19	106	–	–	–	CCC(C)(C)Cc1c[nH]c(CCc2ccc(-c3cccc(C)n3)cc2)n1
–	135	106	9	113	30	20	0.67	CCC(C)(C)Cc1c[nH]c(CCc2ccc(-n3cccn3)cc2)n1
19	66	97	16	105	–	–	–	CCC(C)(C)Cc1cnc(CCc2ccc(-c3ccc(F)cn3)cc2)[nH]1

From ChEMBL document CHEMBL1156946, “Synthesis and SAR of derivatives based on 2-biarylethylimidazole as bombesin receptor subtype-3 (BRS-3) agonists for the treatment of obesity” (Bioorg Med Chem Lett, 2010)
